Measurements published in US20040115742A1, “Method to identify specific interaction between ligand and receptor” (priority 2002, published 2004).

How the values were obtained:
[1] = target: T1, erythropoietin receptor (EPOR, P19235) (Homo sapiens, UniProt P19235); experiment: cell-based ligand-lactamase fusion binding to cells expressing EPO receptor (CCF2 fluorescence); conditions: for fluorescence readout, multiplexed pool of 12 receptors: EPOR in pool of 12 receptors; for fluorescence readout, multiplexed pool of 96 receptors: EPOR in pool of 96 receptors; for fluorescence readout, one on one receptor-ligand binding / fluorescence readout, multiplexed pool of 12 ligands / fluorescence readout, multiplexed pool of 96 ligands: EPOR; for fluorescence readout, one on one receptor-ligand binding: one to one, beta-lactamase reporter, CCF2 substrate
T1 construct: V5-His (from vector pcDNA3.1D/V5-His-TOPO); expressed in transfected cells
T1 sequence (P19235 25-508): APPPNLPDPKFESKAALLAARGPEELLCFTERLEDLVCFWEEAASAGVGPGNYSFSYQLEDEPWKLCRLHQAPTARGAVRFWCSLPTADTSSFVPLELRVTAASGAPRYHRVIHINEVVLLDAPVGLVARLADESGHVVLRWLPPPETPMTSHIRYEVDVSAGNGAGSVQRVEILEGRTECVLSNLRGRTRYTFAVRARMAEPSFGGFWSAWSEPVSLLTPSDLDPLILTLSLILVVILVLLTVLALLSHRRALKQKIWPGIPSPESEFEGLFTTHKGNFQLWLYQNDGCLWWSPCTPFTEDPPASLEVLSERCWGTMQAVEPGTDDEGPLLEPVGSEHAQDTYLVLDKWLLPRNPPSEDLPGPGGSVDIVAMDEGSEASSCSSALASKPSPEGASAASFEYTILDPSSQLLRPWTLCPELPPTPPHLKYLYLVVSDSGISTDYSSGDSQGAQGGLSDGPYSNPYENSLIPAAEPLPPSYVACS
Description: (§1) Cells transfected with plasmids expressing a ligand lactamase fusion and cells transiently or stably expressing receptor were independently cultured in multiple well (e.g., 96-well, 384-well, or 1536-well) plates. After growth, the culture medium of the cells transiently or stably expressing receptor was removed, and the culture medium of the cells expressing ligand lactamase fusion was added to the wells of cells stably expressing receptor. After the mixture was incubated at 4° C. for 1 hour, the medium was removed. The cells stably expressing receptor were washed three times with PBS containing 1% FBS (Invitrogen), and a lactamase substrate, such as CCF2 in […], was added to the washed cells in each well, and incubated. The fluorescence emission at 447 nm with excitation at 409 nm was measured using the Spectra Max Gemim (Molecular Devices) at different time points. The increase of fluorescence emission at 447 nm represented the lactamase activity of ligand fusion bound on the cell surface.
The EPO receptor and EPO, IL-8, and TNF ligand lactamase fusion proteins were expressed as described above. The EPO, IL-8, and TNF ligand lactamase fusions were contacted with the EPO receptor in duplicate experiments.
(§2) EPO, IL-8, and TNF receptors and ligands were expressed as described above. Known ligands, including the EPO ligand, were grouped to form a multiplexed pool of 12 ligands and a multiplexed pool of 96 ligands. Compared to the fluorescence readout for one on one receptor-ligand binding for EPO/EPOR (26398 arbitrary units), the fluorescence readout (and thus, binding) was less for EPO/IL-8R (−503) and EPO/TNFR (−1027).
(§3) EPO, IL-8, and TNF receptors and ligands were expressed as described above. Known receptors, including the EPO receptor, were grouped to form a multiplexed pool of 12 receptors and a multiplexed pool of 96 receptors. Compared to the fluorescence readout for one on one receptor-ligand binding for EPOR/EPO (26398 arbitrary units), the fluorescence readout (and thus, binding) was less for EPOR/IL-8 (−902) and EPOR/TNF (−1113.5).

[2] = target: T2, interleukin-8 receptor A (IL8R, P25024) (Homo sapiens, UniProt P25024); experiment: cell-based ligand-lactamase fusion binding to cells expressing IL-8 receptor (CCF2 fluorescence); conditions: for fluorescence readout, multiplexed pool of 12 receptors: IL-8R in pool of 12 receptors; for fluorescence readout, multiplexed pool of 96 receptors: IL-8R in pool of 96 receptors; for fluorescence readout, one on one receptor-ligand binding / fluorescence readout, multiplexed pool of 12 ligands / fluorescence readout, multiplexed pool of 96 ligands: IL-8R; for fluorescence readout, one on one receptor-ligand binding: one to one, beta-lactamase reporter, CCF2 substrate
T2 construct: V5-His (from vector pcDNA3.1D/V5-His-TOPO); expressed in transfected cells
T2 sequence (P25024 1-350): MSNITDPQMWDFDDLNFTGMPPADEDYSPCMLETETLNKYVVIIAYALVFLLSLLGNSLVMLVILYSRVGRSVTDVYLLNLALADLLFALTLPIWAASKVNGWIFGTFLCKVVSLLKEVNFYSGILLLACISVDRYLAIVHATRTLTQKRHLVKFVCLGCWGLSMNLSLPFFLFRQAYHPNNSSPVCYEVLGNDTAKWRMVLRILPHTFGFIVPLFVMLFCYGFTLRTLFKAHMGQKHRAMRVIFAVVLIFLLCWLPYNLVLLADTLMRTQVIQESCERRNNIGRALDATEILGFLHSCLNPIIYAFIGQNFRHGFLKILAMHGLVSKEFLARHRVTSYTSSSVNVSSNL
Description: as §1
The IL-8 receptor and IL-8, EPO, and TNF ligand lactamase fusion proteins were expressed as described above. The IL-8, EPO, and TNF ligand lactamase fusions were contacted with the IL-8 receptor in duplicate experiments.
EPO, IL-8, and TNF receptors and ligands were expressed as described above. Known ligands, including the IL-8 ligand, were grouped to form a multiplexed pool of 12 ligands and a multiplexed pool of 96 ligands.
EPO, IL-8, and TNF receptors and ligands were expressed as described above. Known receptors, including the IL-8 receptor, were grouped to form a multiplexed pool of 12 receptors and a multiplexed pool of 96 receptors.

[3] = target: T3, tumor necrosis factor receptor 2 (TNFR, P20333) (Homo sapiens, UniProt P20333); experiment: cell-based ligand-lactamase fusion binding to cells expressing TNF receptor (CCF2 fluorescence); conditions: for fluorescence readout, multiplexed pool of 12 receptors: TNFR in pool of 12 receptors; for fluorescence readout, multiplexed pool of 96 receptors: TNFR in pool of 96 receptors; for fluorescence readout, one on one receptor-ligand binding / fluorescence readout, multiplexed pool of 12 ligands / fluorescence readout, multiplexed pool of 96 ligands: TNFR; for fluorescence readout, one on one receptor-ligand binding: one to one, beta-lactamase reporter, CCF2 substrate
T3 construct: V5-His (from vector pcDNA3.1D/V5-His-TOPO); expressed in transfected cells
T3 sequence (P20333 23-461): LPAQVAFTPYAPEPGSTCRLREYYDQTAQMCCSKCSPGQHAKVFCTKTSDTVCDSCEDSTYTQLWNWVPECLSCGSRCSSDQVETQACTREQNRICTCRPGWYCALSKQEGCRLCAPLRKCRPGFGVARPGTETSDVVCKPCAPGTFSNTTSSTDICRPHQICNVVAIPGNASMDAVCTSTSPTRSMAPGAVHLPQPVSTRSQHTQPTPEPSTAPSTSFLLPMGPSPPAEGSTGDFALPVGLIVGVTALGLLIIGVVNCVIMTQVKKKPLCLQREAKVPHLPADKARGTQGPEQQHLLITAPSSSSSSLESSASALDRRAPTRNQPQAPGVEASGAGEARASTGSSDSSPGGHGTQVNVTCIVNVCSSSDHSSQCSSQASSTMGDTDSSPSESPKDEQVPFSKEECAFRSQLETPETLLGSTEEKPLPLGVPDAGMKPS
Description: as §1
The TNF receptor and TNF, EPO, and IL-8 ligand lactamase fusion proteins were expressed as described above. The TNF, EPO, and IL-8 ligand lactamase fusions were contacted with the TNF receptor in duplicate experiments.
as §2, with “the TNF” for “the EPO”, “for TNF/TNFR (32899” for “for EPO/EPOR (26398”, “for TNF/EPOR (−1113.5)” for “for EPO/IL-8R (−503)”, “and TNF/IL-8R (−814.5).” for “and EPO/TNFR (−1027).”
as §3, with “the TNF” for “the EPO”, “for TNFR/TNF (32899” for “for EPOR/EPO (26398”, “for TNFR/EPO (−1027)” for “for EPOR/IL-8 (−902)”, “and TNFR/IL-8 (−1677).” for “and EPOR/TNF (−1113.5).”

[4] = duplicate experiments, in words

Row | Substance | fluorescence readout of the positive well (FIG. 6) ([1]; 96-well plate, cDNA expression library, multiplexing factor of 12, one out of 96 wells) | fluorescence readout, multiplexed pool of 12 receptors [1] | fluorescence readout, multiplexed pool of 96 receptors [1] | fluorescence readout, one on one receptor-ligand binding [1] | fluorescence readout, multiplexed pool of 12 ligands [1] | fluorescence readout, multiplexed pool of 96 ligands [1] | fluorescence readout of ligand binding with EPO receptor (FIG. 3) [1, 4] | fluorescence readout, multiplexed pool of 12 receptors [2] | fluorescence readout, multiplexed pool of 96 receptors [2] | fluorescence readout, one on one receptor-ligand binding [2] | fluorescence readout, multiplexed pool of 12 ligands [2] | fluorescence readout, multiplexed pool of 96 ligands [2] | fluorescence readout, multiplexed pool of 12 receptors [3] | fluorescence readout, multiplexed pool of 96 receptors [3] | fluorescence readout, one on one receptor-ligand binding [3] | fluorescence readout, multiplexed pool of 12 ligands [3] | fluorescence readout, multiplexed pool of 96 ligands [3] | fluorescence readout of ligand binding with IL-8 receptor (FIG. 3) [2, 4] | fluorescence readout of ligand binding with TNF receptor (FIG. 3) [3, 4]
1 | erythropoietin [EPO] | 13444 | 13570 arbitrary units | 1454 arbitrary units | 26398 arbitrary units | 13570 arbitrary units | 1454 arbitrary units | high fluorescence readout | −785 arbitrary units | −1334 arbitrary units | −503 arbitrary units | −785 arbitrary units | −1334 arbitrary units | −1598 arbitrary units | −1177 arbitrary units | −1027 arbitrary units | −1598 arbitrary units | −1177 arbitrary units |  | 
2 | interleukin-8 [IL-8] |  | −1059 arbitrary units | −1448 arbitrary units | −902 arbitrary units | −1059 arbitrary units | -1450 arbitrary units |  | 3785 arbitrary units | −476 arbitrary units | 16941 arbitrary units | 3785 arbitrary units | −476 arbitrary units | −1847 arbitrary units | −718 arbitrary units | −1677 arbitrary units | −147 arbitrary units | −718 arbitrary units | high fluorescence readout | 
3 | tumor necrosis factor alpha [TNF] |  | -1000 arbitrary units | −1634 arbitrary units | −1113.5 arbitrary units | −1005.5 arbitrary units | −1634 arbitrary units |  | −1275.5 arbitrary units | −381 arbitrary units |  | −1275.5 arbitrary units | −381 arbitrary units | 26974.5 arbitrary units | 6485.5 arbitrary units | 32899 arbitrary units | 26974.5 arbitrary units | 6485.5 arbitrary units |  | high fluorescence readout
